# Experimental data reported in ChEMBL document CHEMBL6153110, “Peptide Double-Stapling and Arginine N-Glycosylation Triggered the Development of Therapeutic Antimicrobial Peptides Capable of Killing Drug-Resistant Bacteria in Mice” (J Med Chem, 2025).
# Positions of bridges follow the written chain, without caps; N, C: chain ends. Non-standard residues stand in square brackets, D forms with d. Residues, ends and D or L forms follow the SMILES beside them. R8 = C=CCCCCCC[C@@](C)(N)C(=O)O; S5 = C=CCCC[C@](C)(N)C(=O)O
# Experiments:
# Type in all cases: functional
# [1] = test system: Staphylococcus aureus; test: Antimicrobial activity against methicillin-resistant Staphylococcus aureus ATCC 43300 assessed as growth inhibition measured after 8 hrs incubation by standard broth dilution assay
# [2] = test system: Pseudomonas aeruginosa; test: Antimicrobial activity against Pseudomonas aeruginosa ATCC 27853 assessed as growth inhibition measured after 8 hrs incubation by standard broth dilution assay
# [3] = test system: Klebsiella pneumoniae; test: Antimicrobial activity against Klebsiella pneumoniae ATCC 13883 assessed as growth inhibition measured after 8 hrs incubation by standard broth dilution assay
# [4] = test system: Streptococcus pneumoniae; test: Antimicrobial activity against Streptococcus pneumoniae ATCC 49619 assessed as growth inhibition measured after 8 hrs incubation by standard broth dilution assay
SMILES,MIC [1] [µg/mL],MIC [2] [µg/mL],MIC [3] [µg/mL],MIC [4] [µg/mL]
CC(=O)N[C@@H](CC(C)C)C(=O)N[C@@H](CCCCN)C(=O)N[C@@H](CCCNC(=N)N)C(=O)N[C@H](C(=O)N[C@@H](Cc1c[nH]c2ccccc12)C(=O)N[C@@H](CCCCN)C(=O)N[C@@H](CCCNC(=N)N)C(=O)N[C@H](C(=O)N[C@@H](Cc1ccccc1)C(=O)N[C@@H](CCCCN)C(=O)N[C@@H](CC(C)C)C(=O)N[C@@]1(C)CCC/C=C\CCC[C@@](C)(C(=O)N[C@@H](CCCNC(=N)N)C(=O)N[C@@H](CCC(N)=O)C(=O)N[C@@H](CC(C)C)C(=O)N[C@@H](CCCCN)C(=O)N[C@@H](CCCCN)C(=O)N2CCC[C@H]2C(=O)N[C@H](C(=O)N[C@@H](CCCNC(=N)N)C(N)=O)C(C)C)NC(=O)[C@H](Cc2ccc(O)cc2)NC(=O)[C@H](CCCNC(=N)N)NC(=O)[C@H](CCCCN)NC1=O)C(C)C)C(C)C (Ac-LKRVWKRVFKL[S5]KRY[S5]RQLKKPVR-NH2; staple (Z) 12-16),9.7,5,38,4.7
CC(=O)N[C@@H](CC(C)C)C(=O)N[C@@H](CCCCN)C(=O)N[C@@H](CCCNC(=N)N)C(=O)N[C@H](C(=O)N[C@@H](Cc1c[nH]c2ccccc12)C(=O)N[C@@H](CCCCN)C(=O)N[C@@H](CCCNC(=N)N)C(=O)N[C@H](C(=O)N[C@@H](Cc1ccccc1)C(=O)N[C@@H](CCCCN)C(=O)N[C@@H](CC(C)C)C(=O)N[C@@H](CC(C)C)C(=O)N[C@@H](CCCCN)C(=O)N[C@@H](CCCNC(=N)N)C(=O)N[C@@]1(C)CCC/C=C\CCC[C@@](C)(C(=O)N[C@@H](CCCCN)C(=O)N[C@@H](CCCCN)C(=O)N2CCC[C@H]2C(=O)N[C@H](C(=O)N[C@@H](CCCNC(=N)N)C(N)=O)C(C)C)NC(=O)[C@H](CCC(N)=O)NC(=O)[C@H](CCCNC(=N)N)NC(=O)[C@H](Cc2c[nH]c3ccccc23)NC1=O)C(C)C)C(C)C (Ac-LKRVWKRVFKLLKR[S5]WRQ[S5]KKPVR-NH2; staple (Z) 15-19),19.1,9.9,38,37.7
CC(=O)N[C@@H](CC(C)C)C(=O)N[C@@H](CCCCN)C(=O)N[C@@H](CCCNC(=N)N)C(=O)N[C@H](C(=O)N[C@@H](Cc1c[nH]c2ccccc12)C(=O)N[C@@H](CCCCN)C(=O)N[C@@H](CCCNC(=N)N)C(=O)N[C@H](C(=O)N[C@@H](Cc1ccccc1)C(=O)N[C@@H](CCCCN)C(=O)N[C@@]1(C)CCC/C=C\CCC[C@@](C)(C(=O)N[C@@H](Cc2c[nH]c3ccccc23)C(=O)N[C@@H](CCCNC(=N)N)C(=O)N[C@@H](CCC(N)=O)C(=O)N[C@@H](CC(C)C)C(=O)N[C@@H](CCCCN)C(=O)N[C@@H](CCCCN)C(=O)N2CCC[C@H]2C(=O)N[C@H](C(=O)N[C@@H](CCCNC(=N)N)C(N)=O)C(C)C)NC(=O)[C@H](CCCNC(=N)N)NC(=O)[C@H](CCCCN)NC(=O)[C@H](CC(C)C)NC1=O)C(C)C)C(C)C (Ac-LKRVWKRVFK[S5]LKR[S5]WRQLKKPVR-NH2; staple (Z) 11-15),2.5,38.1,38,37.7
CC(=O)N[C@@H](CC(C)C)C(=O)N[C@@H](CCCCN)C(=O)N[C@@H](CCCNC(=N)N)C(=O)N[C@@]1(C)CCC/C=C\CCC[C@@](C)(C(=O)N[C@@H](Cc2ccccc2)C(=O)N[C@@H](CCCCN)C(=O)N[C@@H](CC(C)C)C(=O)N[C@@H](CC(C)C)C(=O)N[C@@H](CCCCN)C(=O)N[C@@H](CCCNC(=N)N)C(=O)N[C@@H](Cc2ccc(O)cc2)C(=O)N[C@@H](Cc2c[nH]c3ccccc23)C(=O)N[C@@H](CCCNC(=N)N)C(=O)N[C@@H](CCC(N)=O)C(=O)N[C@@H](CC(C)C)C(=O)N[C@@H](CCCCN)C(=O)N[C@@H](CCCCN)C(=O)N2CCC[C@H]2C(=O)N[C@H](C(=O)N[C@@H](CCCNC(=N)N)C(N)=O)C(C)C)NC(=O)[C@H](CCCNC(=N)N)NC(=O)[C@H](CCCCN)NC(=O)[C@H](Cc2c[nH]c3ccccc23)NC1=O (Ac-LKR[S5]WKR[S5]FKLLKRYWRQLKKPVR-NH2; staple (Z) 4-8),2.5,5,38,37.7
CC(=O)N[C@@H](CC(C)C)C(=O)N[C@@H](CCCCN)C(=O)N[C@@H](CCCNC(=N)N)C(=O)N[C@H](C(=O)N[C@@H](Cc1c[nH]c2ccccc12)C(=O)N[C@@H](CCCCN)C(=O)N[C@@H](CCCNC(=N)N)C(=O)N[C@H](C(=O)N[C@@H](Cc1ccccc1)C(=O)N[C@@H](CCCCN)C(=O)N[C@@H](CC(C)C)C(=O)N[C@@H](CC(C)C)C(=O)N[C@@H](CCCCN)C(=O)N[C@@H](CCCNC(=N)N)C(=O)N[C@@H](Cc1ccc(O)cc1)C(=O)N[C@]1(C)CCCCCC/C=C\CCC[C@@](C)(C(=O)N[C@@H](CCCNC(=N)N)C(N)=O)NC(=O)[C@@H]2CCCN2C(=O)[C@H](CCCCN)NC(=O)[C@H](CCCCN)NC(=O)[C@H](CC(C)C)NC(=O)[C@H](CCC(N)=O)NC(=O)[C@H](CCCNC(=N)N)NC1=O)C(C)C)C(C)C (Ac-LKRVWKRVFKLLKRY[R8]RQLKKP[S5]R-NH2; staple (Z) 16-23),9.7,2.6,2.5,19
CC(=O)N[C@@H](CC(C)C)C(=O)N[C@@H](CCCCN)C(=O)N[C@@H](CCCNC(=N)N)C(=O)N[C@H](C(=O)N[C@@H](Cc1c[nH]c2ccccc12)C(=O)N[C@@H](CCCCN)C(=O)N[C@@H](CCCNC(=N)N)C(=O)N[C@H](C(=O)N[C@@H](Cc1ccccc1)C(=O)N[C@@H](CCCCN)C(=O)N[C@@H](CC(C)C)C(=O)N[C@]1(C)CCCCCC/C=C\CCC[C@@](C)(C(=O)N[C@@H](CCCCN)C(=O)N[C@@H](CCCCN)C(=O)N2CCC[C@H]2C(=O)N[C@H](C(=O)N[C@@H](CCCNC(=N)N)C(N)=O)C(C)C)NC(=O)[C@H](CCC(N)=O)NC(=O)[C@H](CCCNC(=N)N)NC(=O)[C@H](Cc2c[nH]c3ccccc23)NC(=O)[C@H](Cc2ccc(O)cc2)NC(=O)[C@H](CCCNC(=N)N)NC(=O)[C@H](CCCCN)NC1=O)C(C)C)C(C)C (Ac-LKRVWKRVFKL[R8]KRYWRQ[S5]KKPVR-NH2; staple (Z) 12-19),4.9,2.6,38,4.7
CC(=O)N[C@]1(C)CCCCCC/C=C\CCC[C@@](C)(C(=O)N[C@@H](Cc2ccccc2)C(=O)N[C@@H](CCCCN)C(=O)N[C@@H](CC(C)C)C(=O)N[C@@H](CC(C)C)C(=O)N[C@@H](CCCCN)C(=O)N[C@@H](CCCNC(=N)N)C(=O)N[C@@H](Cc2ccc(O)cc2)C(=O)N[C@@H](Cc2c[nH]c3ccccc23)C(=O)N[C@@H](CCCNC(=N)N)C(=O)N[C@@H](CCC(N)=O)C(=O)N[C@@H](CC(C)C)C(=O)N[C@@H](CCCCN)C(=O)N[C@@H](CCCCN)C(=O)N2CCC[C@H]2C(=O)N[C@H](C(=O)N[C@@H](CCCNC(=N)N)C(N)=O)C(C)C)NC(=O)[C@H](CCCNC(=N)N)NC(=O)[C@H](CCCCN)NC(=O)[C@H](Cc2c[nH]c3ccccc23)NC(=O)[C@H](C(C)C)NC(=O)[C@H](CCCNC(=N)N)NC(=O)[C@H](CCCCN)NC1=O (Ac-[R8]KRVWKR[S5]FKLLKRYWRQLKKPVR-NH2; staple (Z) 1-8),4.9,9.8,38,9.6
CC(=O)N[C@@H](CC(C)C)C(=O)N[C@@H](CCCCN)C(=O)N[C@@H](CCCNC(=N)N)C(=O)N[C@H](C(=O)N[C@@]1(C)CCC/C=C\CCC[C@@](C)(C(=O)N[C@@H](CCCCN)C(=O)N[C@@H](CC(C)C)C(=O)N[C@@H](CC(C)C)C(=O)N[C@@H](CCCCN)C(=O)N[C@@H](CCCNC(=N)N)C(=O)N[C@@H](Cc2ccc(O)cc2)C(=O)N[C@@H](Cc2c[nH]c3ccccc23)C(=O)N[C@@H](CCCNC(=N)N)C(=O)N[C@@H](CCC(N)=O)C(=O)N[C@@H](CC(C)C)C(=O)N[C@@H](CCCCN)C(=O)N[C@@H](CCCCN)C(=O)N2CCC[C@H]2C(=O)N[C@H](C(=O)N[C@@H](CCCNC(=N)N)C(N)=O)C(C)C)NC(=O)[C@H](C(C)C)NC(=O)[C@H](CCCNC(=N)N)NC(=O)[C@H](CCCCN)NC1=O)C(C)C (Ac-LKRV[S5]KRV[S5]KLLKRYWRQLKKPVR-NH2; staple (Z) 5-9),2.5,2.6,38,37.7
CC(=O)N[C@@H](CC(C)C)C(=O)N[C@@H](CCCCN)C(=O)N[C@@H](CCCNC(=N)N)C(=O)N[C@H](C(=O)N[C@@H](Cc1c[nH]c2ccccc12)C(=O)N[C@@H](CCCCN)C(=O)N[C@@H](CCCNC(=N)N)C(=O)N[C@H](C(=O)N[C@@H](Cc1ccccc1)C(=O)N[C@@H](CCCCN)C(=O)N[C@@H](CC(C)C)C(=O)N[C@@H](CC(C)C)C(=O)N[C@@H](CCCCN)C(=O)N[C@@H](CCCNC(=N)N)C(=O)N[C@]1(C)CCCCCC/C=C\CCC[C@@](C)(C(=O)N[C@H](C(=O)N[C@@H](CCCNC(=N)N)C(N)=O)C(C)C)NC(=O)[C@H](CCCCN)NC(=O)[C@H](CCCCN)NC(=O)[C@H](CC(C)C)NC(=O)[C@H](CCC(N)=O)NC(=O)[C@H](CCCNC(=N)N)NC(=O)[C@H](Cc2c[nH]c3ccccc23)NC1=O)C(C)C)C(C)C (Ac-LKRVWKRVFKLLKR[R8]WRQLKK[S5]VR-NH2; staple (Z) 15-22),4.9,9.9,38,37.7
CC(=O)N[C@@H](CC(C)C)C(=O)N[C@@H](CCCCN)C(=O)N[C@@H](CCCNC(=N)N)C(=O)N[C@H](C(=O)N[C@@H](Cc1c[nH]c2ccccc12)C(=O)N[C@@H](CCCCN)C(=O)N[C@@H](CCCNC(=N)N)C(=O)N[C@H](C(=O)N[C@@H](Cc1ccccc1)C(=O)N[C@@H](CCCCN)C(=O)N[C@@H](CC(C)C)C(=O)N[C@@H](CC(C)C)C(=O)N[C@@H](CCCCN)C(=O)N[C@@H](CCCNC(=N)N)C(=O)N[C@@H](Cc1ccc(O)cc1)C(=O)N[C@@]1(C)CCC/C=C\CCC[C@@](C)(C(=O)N[C@@H](CCCCN)C(=O)N2CCC[C@H]2C(=O)N[C@H](C(=O)N[C@@H](CCCNC(=N)N)C(N)=O)C(C)C)NC(=O)[C@H](CC(C)C)NC(=O)[C@H](CCC(N)=O)NC(=O)[C@H](CCCNC(=N)N)NC1=O)C(C)C)C(C)C (Ac-LKRVWKRVFKLLKRY[S5]RQL[S5]KPVR-NH2; staple (Z) 16-20),2.5,5,38,19
